Common to all, as to test: AK assay 384-well format, Prestwick library screening
For one test, the system named is E. faecium. It is filed as cell-based, Enterococcus faecium. The conditions noted are these: Enterococcus faecium, 3 h, 50 μM final drug concentration.
Test [1] deals with S. aureus strain USA300-0114. Type of test: cell-based, Staphylococcus aureus. To be noted: Staphylococcus aureus, USA300, 3 h, 50 μM final drug concentration.
For the next test, the system named is K. pneumoniae. It is filed as cell-based, Klebsiella pneumoniae. The conditions noted are these: Klebsiella pneumoniae, 3 h, 50 μM final drug concentration.
Test [2] deals with A. baumannii strain 98-37-09. It is filed as cell-based, Acinetobacter baumannii. To be noted: Acinetobacter baumannii, 983709, 3 h, 50 μM final drug concentration.
Another test has as its system P. aeruginosa. It is filed as cell-based, Pseudomonas aeruginosa. The conditions noted are these: Pseudomonas aeruginosa, 3 h, 50 μM final drug concentration.
A further test relates to E. cloacae. It is filed as cell-based, Enterobacter cloacae. To be noted: Enterobacter cloacae, 3 h, 50 μM final drug concentration.
The subject of another test is E. coli. It is filed as cell-based, Escherichia coli. The conditions noted are these: Escherichia coli, 3 h, 50 μM final drug concentration.
The mark [3] stands for this setting: planktonic, cutoff for positive 3-fold increase, read-out: AK-based Prestwick Library Screening Results, E. faecium (fold increase in extracellular AK activity).
Where [4] appears, read: planktonic, cutoff for positive 3-fold increase, read-out: AK-based Prestwick Library Screening Results, S. aureus (fold increase in extracellular AK activity).
[5] abbreviates: planktonic, cutoff for positive 3-fold increase, read-out: AK-based Prestwick Library Screening Results, K. pneumoniae (fold increase in extracellular AK activity).
The mark [6] stands for this setting: planktonic, cutoff for positive 3-fold increase, read-out: AK-based Prestwick Library Screening Results, A. baumannii (fold increase in extracellular AK activity).
[7] abbreviates: planktonic, cutoff for positive 3-fold increase, read-out: AK-based Prestwick Library Screening Results, P. aeruginosa (fold increase in extracellular AK activity).
Where [8] appears, read: planktonic, cutoff for positive 3-fold increase, read-out: AK-based Prestwick Library Screening Results, E. cloacae (fold increase in extracellular AK activity).
The mark [9] stands for this setting: planktonic, cutoff for positive 3-fold increase, read-out: AK-based Prestwick Library Screening Results, E. coli (fold increase in extracellular AK activity).
[10] abbreviates: 384-well format, cutoff for positive-scoring molecules 3-fold increase, read-out: AK-based Prestwick Library Screening Results, E. faecium (increase in extracellular AK activity).
Where [11] appears, read: 384-well format, cutoff for positive-scoring molecules 3-fold increase, read-out: AK-based Prestwick Library Screening Results, S. aureus (increase in extracellular AK activity).
[12] abbreviates: 384-well format, cutoff for positive-scoring molecules 3-fold increase, read-out: AK-based Prestwick Library Screening Results, K. pneumoniae (increase in extracellular AK activity).
The mark [13] stands for this setting: 384-well format, cutoff for positive-scoring molecules 3-fold increase, read-out: AK-based Prestwick Library Screening Results, A. baumannii (increase in extracellular AK activity).
The mark [14] stands for this setting: 384-well format, cutoff for positive-scoring molecules 3-fold increase, read-out: AK-based Prestwick Library Screening Results, P. aeruginosa (increase in extracellular AK activity).
The mark [15] stands for this setting: 384-well format, cutoff for positive-scoring molecules 3-fold increase, read-out: AK-based Prestwick Library Screening Results, E. cloacae (increase in extracellular AK activity).
[16] abbreviates: 384-well format, cutoff for positive-scoring molecules 3-fold increase, read-out: AK-based Prestwick Library Screening Results, E. coli (increase in extracellular AK activity).

The source of these data is US10004701B2, “Methods and compositions for treating infection” (UNIVERSITY OF ROCHESTER, priority 2012, dated 2018).

Structures can show the parent of a compound that is named as a salt. Where two headings read alike, the source gives them in different places.

Regarding `c1ccc(C2CN3CCSC3=N2)cc1` (stereo not shown) [Tetramisole hydrochloride], the fold induction at 50 µM is 1 in the test with E. faecium (setting [3]); 1.1 in test [1] (setting [4]); 1.1 with K. pneumoniae (setting [5]); 1.4 in test [2] (setting [6]); 1.2 in the test with P. aeruginosa (setting [7]); 1.4 with E. cloacae (setting [8]). The fold induction at 50 µM in the test on E. coli (setting [9]) was 1.3.

For the compound `COc1ccc2cc1Oc1ccc(cc1)C[C@H]1c3cc(c(OC)cc3CCN1C)Oc1c(OC)c(OC)cc3c1[C@H](C2)N(C)CC3` [Tetrandrine], the fold induction at 50 µM in the test on E. faecium (planktonic, cutoff for positive-scoring molecules 3-fold increase, read-out: AK-based Prestwick Library Screening Results, E. faecium (fold increase in extracellular AK activity)) was 1; in test [1] (planktonic, cutoff for positive-scoring molecules 3-fold increase, read-out: AK-based Prestwick Library Screening Results, S. aureus (fold increase in extracellular AK activity)) it was 0.9; in the test on K. pneumoniae (planktonic, cutoff for positive-scoring molecules 3-fold increase, read-out: AK-based Prestwick Library Screening Results, K. pneumoniae (fold increase in extracellular AK activity)), 0.9; in test [2] (planktonic, cutoff for positive-scoring molecules 3-fold increase, read-out: AK-based Prestwick Library Screening Results, A. baumannii (fold increase in extracellular AK activity)), 0.9; in the test with P. aeruginosa (planktonic, cutoff for positive-scoring molecules 3-fold increase, read-out: AK-based Prestwick Library Screening Results, P. aeruginosa (fold increase in extracellular AK activity)), 0.9; in the test with E. cloacae (planktonic, cutoff for positive-scoring molecules 3-fold increase, read-out: AK-based Prestwick Library Screening Results, E. cloacae (fold increase in extracellular AK activity)), 1.1. For the same compound, the fold induction at 50 µM with E. coli (planktonic, cutoff for positive-scoring molecules 3-fold increase, read-out: AK-based Prestwick Library Screening Results, E. coli (fold increase in extracellular AK activity)) was found to be 0.9.

Turning to `O=C1CCC(N2C(=O)c3ccccc3C2=O)C(=O)N1` (stereo not shown) [Thalidomide], the fold induction at 50 µM in the test on E. faecium (setting [10]) was determined as 1; in test [1] (setting [11]), 1; in the test on K. pneumoniae (setting [12]) it was 0.8; in test [2] (setting [13]) it was 0.9; in the test on P. aeruginosa (setting [14]), 0.9; in the test with E. cloacae (setting [15]) it was 1.1. In addition, the fold induction at 50 µM in the test on E. coli (setting [16]) stood at 1.

Regarding `Cn1cnc2c1c(=O)[nH]c(=O)n2C` [Theobromine], the fold induction at 50 µM in the test with E. faecium (cutoff for positive-scoring molecules 3-fold increase, read-out: AK-based Prestwick Library Screening Results, E. faecium (fold increase in extracellular AK activity)) amounted to 1.1; in test [1] (cutoff for positive-scoring molecules 3-fold increase, read-out: AK-based Prestwick Library Screening Results, S. aureus (fold increase in extracellular AK activity)), 1.3; in the test on K. pneumoniae (cutoff for positive-scoring molecules 3-fold increase, read-out: AK-based Prestwick Library Screening Results, K. pneumoniae (fold increase in extracellular AK activity)), 1.2; in test [2] (cutoff for positive-scoring molecules 3-fold increase, read-out: AK-based Prestwick Library Screening Results, A. baumannii (fold increase in extracellular AK activity)), 1.1; in the test on P. aeruginosa (cutoff for positive-scoring molecules 3-fold increase, read-out: AK-based Prestwick Library Screening Results, P. aeruginosa (fold increase in extracellular AK activity)) it was 1.2; with E. cloacae (cutoff for positive-scoring molecules 3-fold increase, read-out: AK-based Prestwick Library Screening Results, E. cloacae (fold increase in extracellular AK activity)), 1.4. In addition, the fold induction at 50 µM in the test with E. coli (cutoff for positive-scoring molecules 3-fold increase, read-out: AK-based Prestwick Library Screening Results, E. coli (fold increase in extracellular AK activity)) came out at 1.2.

For `Cn1c(=O)c2[nH]cnc2n(C)c1=O` [Theophylline monohydrate], the fold induction at 50 µM with E. faecium ([…], read-out: AK-based Prestwick Library Screening Results, E. faecium (fold increase in extracellular AK activity)) is 1; in test [1] ([…], read-out: AK-based Prestwick Library Screening Results, S. aureus (fold increase in extracellular AK activity)) it was 1.3; in the test on K. pneumoniae ([…], read-out: AK-based Prestwick Library Screening Results, K. pneumoniae (fold increase in extracellular AK activity)) it was 1.1; in test [2] ([…], read-out: AK-based Prestwick Library Screening Results, A. baumannii (fold increase in extracellular AK activity)) it was 1.2; with P. aeruginosa ([…], read-out: AK-based Prestwick Library Screening Results, P. aeruginosa (fold increase in extracellular AK activity)) it was 1.2; with E. cloacae ([…], read-out: AK-based Prestwick Library Screening Results, E. cloacae (fold increase in extracellular AK activity)), 1.3. Moreover, the fold induction at 50 µM in the test on E. coli ([…], read-out: AK-based Prestwick Library Screening Results, E. coli (fold increase in extracellular AK activity)) came out at 1.2.

Regarding `Cc1ncc(C[n+]2csc(CCO)c2C)c(N)n1` [Thiamine hydrochloride], the fold induction at 50 µM in the test on E. faecium (setting [3]) was 1; in test [1] (setting [4]) it was 1.1; in the test with K. pneumoniae (setting [5]), 1.4; in test [2] (setting [6]), 1.3; in the test on P. aeruginosa (setting [7]) it was 1.3; in the test with E. cloacae (setting [8]), 1.3. Moreover, the fold induction at 50 µM in the test with E. coli (setting [9]) is 1.4.

Consider `CS(=O)(=O)c1ccc([C@@H](O)[C@@H](CO)NC(=O)C(Cl)Cl)cc1` [Thiamphenicol], for which the fold induction at 50 µM with E. faecium (setting [10]) is 0.9; in test [1] (setting [11]), 8.7; with K. pneumoniae (setting [12]), 0.4; in test [2] (setting [13]), 0.9; in the test on P. aeruginosa (setting [14]) it was 0.8; with E. cloacae (setting [15]) it was 1.4. Also, in the test with E. coli (setting [16]), the fold induction at 50 µM stood at 0.9.
